Results on one sequence are retold here after article PMC6172451 (Frontiers in Microbiology, 2018).

Like-named read-outs stand apart in the source and are kept apart here. Bridges are numbered along the chain shown (N, C = ends). Where no end group is shown, it is not given here.

Series [1] relates to L. monocytogenes 54002. Description: Membrane permeabilization, SYTOX Green stain. Type of series: cell-based, Listeria monocytogenes. The method, then:
The fluorescence was detected using RT-PCR instrument combined with 5 μM SYTOX^TM Green Stain (Invitrogen, United States). Cells were resuspended in sterile 20 mM sodium phosphate buffer to give 10^6 CFU/mL approximately. Bacteriocin was added at final concentration of 256 and 128 μg/mL, respectively, while a sample with added sodium phosphate buffer was used as control. Meanwhile, the treated cells were examined using confocal laser scanning microscopy (CLSM; Leica, United States) combined with 5 μM SYTOX^TM Green Dead Cell Stain.

For series [2] the following is noted: 1% (V/V) Tween 20, Tween 80, urea, and EDTA at 37°C for 3 h.
Method: After 3 h of incubation at 37°C, the remaining activity against indicator was determined and untreated samples were used as a control test.
The target in the next series is papain (Carica papaya, UniProt P00784). Particulars: 360 μL bacteriocin (256 μg/mL) + 40 μL papain, final 1 mg/mL; pH 6.5; 37°C; 3 h; read-out activity against L. monocytogenes 54002; triplicate. The method, then: (§1) After 3 h of incubation at appropriate the temperature (Table 3), the activity against indicator strain (L. monocytogenes 54002) was determined. Non-enzymic treatment was used as control test.
Chain of papain (P00784 134-345): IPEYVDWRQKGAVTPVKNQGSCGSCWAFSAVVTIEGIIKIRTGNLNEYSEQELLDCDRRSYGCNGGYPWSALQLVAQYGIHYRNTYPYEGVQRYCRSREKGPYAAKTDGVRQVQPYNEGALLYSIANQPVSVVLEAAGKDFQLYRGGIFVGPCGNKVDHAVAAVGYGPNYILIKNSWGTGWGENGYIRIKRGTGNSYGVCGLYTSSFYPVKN

A further series concerns the target proteinase K (Parengyodontium album, UniProt P06873). Particulars: 360 μL bacteriocin (256 μg/mL) + 40 μL proteinase K, final 1 mg/mL; pH 7.5; 37°C; 3 h; read-out activity against L. monocytogenes 54002; triplicate. The protocol: as §1
A further series has as its target pepsin (Sus scrofa, UniProt P00791). As to conditions: 360 μL bacteriocin (256 μg/mL) + 40 μL pepsin, final 1 mg/mL; pH 3; 37°C; 3 h; read-out activity against L. monocytogenes 54002; triplicate. The method, then: as §1
The target of a further series is chymotrypsin (Bos taurus, UniProt P00766). Particulars: 360 μL bacteriocin (256 μg/mL) + 40 μL chymotrypsin, final 1 mg/mL; pH 7.8; 25°C; 3 h; read-out activity against L. monocytogenes 54002; triplicate. The method, then: as §1
The nature of series [3]: pH stability, remaining antibacterial activity. Type of series: physicochemical. Particulars: 256 μg/mL, 3 h at 37°C, readjusted to pH 6.0.
Series [4] has as its system L. monocytogenes 54002. Description: Mode of action: viable cells and optical density. Type of series: cell-based, Listeria monocytogenes. Particulars: 256 μg/mL bacteriocin, about 10^8 CFU/mL in 20 mM sodium phosphate buffer, 37°C, after 3 h. The method, then: Cells were harvested and resuspended in sterile 20 mM sodium phosphate buffer to give 10^8 CFU/mL approximately. Bacteriocin was added for final concentration of 256 μg/mL, while a sample without added bacteriocin was used as control. All samples were incubated for 5 h at 37°C. The optical density (600 nm) and viable cells were monitored every 1 h ([Deraz et al., 2007]).

Chain of pepsin (P00791 60-385): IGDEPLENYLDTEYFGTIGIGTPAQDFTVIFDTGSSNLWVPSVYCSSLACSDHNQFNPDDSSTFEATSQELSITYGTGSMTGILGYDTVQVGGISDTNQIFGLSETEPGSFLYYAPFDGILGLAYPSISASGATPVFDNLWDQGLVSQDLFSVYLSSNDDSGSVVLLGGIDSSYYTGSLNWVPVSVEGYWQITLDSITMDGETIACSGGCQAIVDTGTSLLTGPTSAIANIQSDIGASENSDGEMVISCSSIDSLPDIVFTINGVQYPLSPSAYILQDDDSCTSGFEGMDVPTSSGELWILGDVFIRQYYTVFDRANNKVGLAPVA
Chain of proteinase K (P06873 106-384): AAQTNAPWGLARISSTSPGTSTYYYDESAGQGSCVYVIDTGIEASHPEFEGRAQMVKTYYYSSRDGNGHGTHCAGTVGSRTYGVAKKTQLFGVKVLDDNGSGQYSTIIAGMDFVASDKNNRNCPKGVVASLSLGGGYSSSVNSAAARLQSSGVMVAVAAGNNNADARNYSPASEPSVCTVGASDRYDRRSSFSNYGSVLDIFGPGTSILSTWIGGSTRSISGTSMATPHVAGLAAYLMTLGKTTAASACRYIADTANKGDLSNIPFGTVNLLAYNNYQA

Turning to “VIADKYYGNGVSCGKHTCTVDWGEAFSCSVSHLANFGHGKC (disulfide 13-18; cysteines drawn unpaired) [plantaricin LPL-1]”, the “Amounts of dead cells (CLSM)” value with L. monocytogenes 54002 [1] (256 μg/mL for 10, 20 and 30 min, 5 μM SYTOX Green Dead Cell Stain, confocal laser scanning microscopy) is given as “increased gradually”. Besides, the “Fluorescence intensity (SYTOX Green)” value in the series with L. monocytogenes 54002 [1] (128 and 256 μg/mL, about 10^6 CFU/mL, 5 μM SYTOX Green, RT-PCR instrument, control remained stable) is “increased”. The “Stability toward surfactants in words” value in [2] is listed as “remained stable”. Besides, the “Diameter (mm) of inhibition zone after enzyme treatment” value at papain, at proteinase K, at pepsin and on chymotrypsin was 0 mm each time. In addition, the “Remaining antibacterial activity (%)” value in series [3] (pH 10, pH set with HCl/NaOH, activity against indicator, Figure 5A) is given as 25% and the “Remaining antibacterial activity (%)” value (121°C, 20 min, 256 μg/mL, autoclave, Figure 5B) came out at 58.82%. In series [3] (pH between 2.0 and 7.0), the Activity kept is 90%. Moreover, for the setting “60, 80, and 100°C for 15 and 30 min”, the “Thermal stability in words” value was “remained stable”. Further, the “Decrease of optical density (600 nm)” value in the series on L. monocytogenes 54002 [4] is reported as 0.69 units. Also, the “Decrease of the number of viable cells” value with L. monocytogenes 54002 [4] turned out to be 2.11 Log10 cfu.
